Data from ChEMBL document CHEMBL3045639, “Evaluation of three diatomaceous earth and one natural pyrethrum formulations against pupae of Tribolium confusum DuVal (Coleoptera: Tenebrionidae) on wheat and flour” (2006).
Active and inactive are the calls of the source. No cut-off for these calls is given here.

Key:
[1] = tested on: Tribolium confusum; test: Insecticidal activity against Tribolium confusum (confused flour beetle) infected wheat assessed as increase in mortality at 0.125 to 0.75 ppm applied as spray after 7 days in absence of diatomaceous earth; type: functional, organism-based
[2] = tested on: Sitophilus oryzae; test: Insecticidal activity against Sitophilus oryzae (rice weevil) infected wheat assessed as increase in mortality at 0.125 to 0.25 ppm applied as spray after 14 days in presence of diatomaceous earth; type: functional, organism-based
[3] = tested on: Sitophilus oryzae; test: Insecticidal activity against Sitophilus oryzae (rice weevil) infected wheat assessed as mortality at 0.75 ppm applied as spray after 48 hr in presence of diatomaceous earth; type: functional
[4] = tested on: Tribolium confusum; test: Insecticidal activity against Tribolium confusum (confused flour beetle) infected wheat assessed as increase in mortality at 0.25 to 0.75 ppm applied as spray after 14 days in absence of diatomaceous earth; type: functional
[5] = tested on: Tribolium confusum; test: Insecticidal activity against Tribolium confusum (confused flour beetle) infected wheat assessed as increase in mortality at 0.125 ppm applied as spray after 14 days in absence of diatomaceous earth; type: functional; settings: 336 h
[6] = tested on: Sitophilus oryzae; test: Insecticidal activity against Sitophilus oryzae (rice weevil) infected wheat assessed as increase in mortality at 0.125 ppm applied as spray after 7 days in absence of diatomaceous earth; type: functional, organism-based
[7] = tested on: Tribolium confusum; test: Insecticidal activity against Tribolium confusum (confused flour beetle) infected wheat assessed as increase in mortality at 0.125 to 0.75 ppm applied as spray after 24 hr in absence of diatomaceous earth; type: functional, organism-based
[8] = tested on: Tribolium confusum; test: Insecticidal activity against Tribolium confusum (confused flour beetle) infected wheat assessed as increase in mortality at 0.125 to 0.75 ppm applied as spray after 48 hr in presence of diatomaceous earth; type: functional, organism-based
[9] = tested on: Sitophilus oryzae; test: Insecticidal activity against Sitophilus oryzae (rice weevil) infected wheat assessed as mortality at 0.75 ppm applied as spray after 7 days in absence of diatomaceous earth; type: functional; settings: 168 h
[10] = tested on: Sitophilus oryzae; test: Insecticidal activity against Sitophilus oryzae (rice weevil) infected wheat assessed as mortality at 0.75 ppm applied as spray after 48 hr in absence of diatomaceous earth; type: functional
[11] = tested on: Sitophilus oryzae; test: Insecticidal activity against Sitophilus oryzae (rice weevil) infected wheat assessed as mortality at 0.125 to 0.75 ppm applied as spray after 24 hr in absence of diatomaceous earth; type: functional
[12] = tested on: Sitophilus oryzae; test: Insecticidal activity against Sitophilus oryzae (rice weevil) infected wheat assessed as decrease in progeny productionc at 0.125 to 0.75 ppm applied as spray after 60 days in presence of diatomaceous earth; type: functional, organism-based
[13] = tested on: Sitophilus oryzae; test: Insecticidal activity against Sitophilus oryzae (rice weevil) infected wheat assessed as decrease in progeny productionc at 0.125 to 0.75 ppm applied as spray after 60 days in absence of diatomaceous earth; type: functional, organism-based
[14] = tested on: Sitophilus oryzae; test: Insecticidal activity against Sitophilus oryzae (rice weevil) infected wheat assessed as increase in mortality at 0.75 ppm applied as spray after 14 days in presence of diatomaceous earth; type: functional, organism-based
[15] = tested on: Sitophilus oryzae; test: Insecticidal activity against Sitophilus oryzae (rice weevil) infected wheat assessed as increase in mortality at 0.75 ppm applied as spray after 14 days in absence of diatomaceous earth; type: functional, organism-based
[16] = tested on: Sitophilus oryzae; test: Insecticidal activity against Sitophilus oryzae (rice weevil) infected wheat assessed as increase in mortality at 0.125 to 0.25 ppm applied as spray after 48 hr in presence of diatomaceous earth; type: functional, organism-based

In the case of `CC1(C)C(C=C(Cl)Cl)C1C(=O)OC(C#N)c1ccc(F)c(Oc2ccccc2)c1` (stereo unspecified) [CYFLUTHRIN], the Activity [1] is reported as “Active”, the Activity [2] is reported as “Active” and the mortality at 0.75 ppm [3] is reported as 79%. The mortality [4] was 100%, the mortality at 0.125 ppm [5] was over 91% and the Activity [6] was “Active”. For the same compound, the Activity [7] was “Active”, the Activity [8] was “Active” and the mortality at 0.75 ppm [9] was over 98%. The mortality at 0.75 ppm [10] was 79%, the mortality [11] was 6% and the Activity [12] was “Active”. The Activity [13] was “inactive”, the Activity [14] was “Active” and the Activity [15] was “Active”. The Activity [16] was “Active”.
